For test [1], the target named is T1, α-glucosidase from Saccharomyces cerevisiae (Saccharomyces cerevisiae, UniProt P53341).
T1 construct: purchased Sigma-Aldrich Co. LLC (St. Louis, MO)
In words: biochemical. As for the experimental part: Compounds A1, A2, A3, A4, A5, A6, B1, B2, B3, B4, C1, C2, C3, C4, C5, C6, C8, C9, D1 (chrysin), D2 (galangin) and D5 were obtained from Indofine Chemical Company, Inc. (Hillsborough, NJ). The flavonoids C7, C10, C11, C12, C13, D10, D11, D12, D13, D14 and D17 were synthesised as previously described. For the enzymatic assays, flavonoids were dissolved in DMSO (the final concentration of DMSO in the reactional mixture was 4.76%).
The α-glucosidase activity was measured using a method of Tadera et al.[31] slightly modified. The assay was carried out by monitoring the α-glucosidase-mediated transformation of the substrate pNPG into α-D-glucose and p-nitrophenol, at 405 nm. Briefly, in a 96-well plate, the enzyme (0.05 U/mL), dissolved in 100 mM phosphate buffer (pH 6.8), was pre-incubated at 37 °C for 5 min with the flavonoids (0–200 μM). In sequence, pNPG was added (600 μM) and incubated in the reaction mixture at 37 °C for 30 min. The enzymatic reaction was monitored spectrophotometrically, in a microplate reader (Synergy HT, BIO-TEK), by measuring the absorbance at 405 nm. The obtained values correspond to the slope measured between 5 and 20 min. […] The obtained results represent at least three independent experiments.

Another test deals with α-glucosidase. The note with it: cited from earlier work; for Activity against α-glucosidase catalytic activity: ref Gao et al. 27.
In another test the target is T2, yeast α-glucosidase (Saccharomyces cerevisiae, UniProt P53341).
T2 construct: purchased Sigma-Aldrich Co. LLC (St. Louis, MO)
T2 sequence (P53341 whole entry): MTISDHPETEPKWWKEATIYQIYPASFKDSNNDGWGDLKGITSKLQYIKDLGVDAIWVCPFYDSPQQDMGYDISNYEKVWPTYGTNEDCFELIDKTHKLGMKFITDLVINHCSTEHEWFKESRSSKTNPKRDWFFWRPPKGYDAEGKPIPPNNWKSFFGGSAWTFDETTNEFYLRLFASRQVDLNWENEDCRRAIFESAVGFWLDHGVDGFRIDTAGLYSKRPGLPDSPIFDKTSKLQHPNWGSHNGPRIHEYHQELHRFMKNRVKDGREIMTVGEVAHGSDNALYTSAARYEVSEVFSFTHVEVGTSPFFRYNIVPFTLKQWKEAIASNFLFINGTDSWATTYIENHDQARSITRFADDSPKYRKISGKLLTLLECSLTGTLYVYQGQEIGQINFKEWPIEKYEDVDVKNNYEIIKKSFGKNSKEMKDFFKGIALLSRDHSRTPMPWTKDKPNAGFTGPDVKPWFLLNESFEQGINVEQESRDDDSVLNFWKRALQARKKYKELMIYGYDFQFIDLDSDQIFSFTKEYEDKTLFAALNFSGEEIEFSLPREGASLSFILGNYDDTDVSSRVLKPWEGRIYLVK
In words: Inhibitory kinetic analysis (Michaelis–Menten, Lineweaver–Burk plots). The format is biochemical. The settings on record: for Type of inhibition: pNPG 300, 600 and 1200 μM. How it is done:
Briefly, the enzyme (0.05 U/mL), dissolved in 100 mM phosphate buffer (pH 6.8), was pre-incubated at 37 °C with the above mentioned flavonoids in a 96-well plate, for 5 min. In sequence, pNPG was added (300, 600 and 1200 μM) and incubated in the reaction mixture at 37 °C for 30 min.
The study of the inhibition type (competitive, uncompetitive, non-competitive or mixed) of the tested flavonoids was performed using the nonlinear regression Michaelis–Menten enzyme kinetics and the corresponding Lineweaver–Burk double reciprocal plots for each concentration of the inhibitor and substrate. The Ki values were calculated with GraphPad Software 6.0 by plotting the reciprocal of maximum velocity (1/V max) (y axis) against the flavonoid concentrations (x axis) (Table 2)[38–40].
The type of inhibition parameters were all calculated with GraphPad Software 6.0. The obtained results represent at least three independent experiments.

The mark [2] stands for this setting: read-out: Inhibitory activity at the highest tested concentration.
Where [3] appears, read: enzyme 0.05 U/mL, pNPG 600 μM, pH 6.8, 37 °C, mean ± SEM, read-out: IC50.
[4] abbreviates: mean ± SEM, from 1/Vmax vs flavonoid concentration, read-out: Ki.

Like-named read-outs stand apart in the source and are kept apart here.

T1 sequence (P53341 whole entry): as above

`O=c1cc(-c2ccccc2)oc2cc(O)cc(O)c12` [Compound D1, Chrysin]: the “Inhibitory activity against α-glucosidase (in words)” value (from here on “Inhibitory activity”) in test [1] is “no inhibitory effect”. Further, the inhibition at 50 µM in test [1] (setting [2]) was under 20%.
Broadly, the IC50 is the point on the concentration scale where inhibition reaches its midpoint. As to `O=c1cc(-c2ccccc2)oc2cc(O)c(O)c(O)c12` [Compound D3, Baicalein], the IC50 in test [1] (setting [3]) was 44 ± 3 µM.
In the case of `COc1ccc(-c2oc3c(O)c(O)ccc3c(=O)c2O)cc1OC` [Compound C11], the inhibition at 200 µM in test [1] (setting [2]) was found to be 31 ± 3%.
Take `O=c1c(O)c(-c2ccc(O)cc2)oc2cc(O)ccc12` [Compound C5]: the IC50 in test [1] (setting [3]) turned out to be 96 ± 10 µM.
For the compound `COc1ccc(-c2oc3c(OCc4ccccc4)c(OCc4ccccc4)ccc3c(=O)c2O)cc1OC` [Compound C13], the inhibition at 200 µM in test [1] (setting [2]) came to 32 ± 3%.
In the case of `O=c1cc(-c2ccccc2)oc2cccc(O)c12` [Compound B1], the “Activity against α-glucosidase catalytic activity” value in the test on α-glucosidase was “no activity”. Moreover, the inhibition at 200 µM in test [1] (setting [2]) is under 20%.
On to `O=c1cc(-c2ccc(O)cc2)oc2cc(O)cc(O)c12` [Compound D5, Apigenin], for which, in test [1], the IC50 stood at 82 ± 6 µM.
What is called Ki is a measure of affinity in units of concentration, obtained from inhibition or displacement. As to `O=C1c2c(O)cc(O)cc2OC(c2ccc(O)c(O)c2)C1O` (stereo not drawn) [Compound E3, Taxifolin], the Ki on yeast α-glucosidase (setting [4]) came to 347 ± 15 µM. Also, the Type of inhibition entry on yeast α-glucosidase is listed as “Non-competitive”. Further, in test [1], the IC50 is about 200 µM.
In the case of `C[C@H]1O[C@H](O[C@H]2[C@H](O)[C@@H](O)[C@@H](O[C@H]3[C@H](O)[C@@H](O)C(O)O[C@@H]3CO)O[C@@H]2CO)[C@H](O)[C@@H](O)[C@@H]1N[C@H]1C=C(CO)[C@@H](O)[C@H](O)[C@H]1O` (stereo partly drawn) [Acarbose, reference compound], the Type of inhibition entry in the test with α-glucosidase (ref Kim et al. 68, Lopez et al. 69) was “competitive”; in the test with α-glucosidase (ref Son et al. 70), “mixed type of inhibition”; on yeast α-glucosidase, “Competitive”.
As to `O=c1cc(-c2ccc(O)c(O)c2)oc2cccc(O)c12` [Compound B4], in test [1], the IC50 came out at 66 ± 7 µM.
Still for that read-out and setting: for `O=c1cc(-c2ccc(O)c(O)c2)oc2c(Cl)c(O)cc(O)c12` [Compound D12] the value was 55 ± 2 µM.
In the case of `COc1ccc2c(=O)c(O)c(-c3ccc(OCc4ccccc4)c(OCc4ccccc4)c3)oc2c1OC` [Compound C12], the inhibition at 200 µM in test [1] (setting [2]) was under 20%.
As to `O=c1cc(-c2ccc(O)c(O)c2)oc2cc(O)c(Cl)c(O)c12` [Compound D11], the IC50 in test [1] (setting [3]) is about 200 µM.
For `O=c1c(O)c(-c2ccc(O)c(O)c2)oc2ccccc12` [Compound A5], at yeast α-glucosidase, the Ki stood at 41 ± 7 µM and the Type of inhibition result is “Mixed”. Further, the half-inhibitory concentration (IC50) in test [1] (setting [3]) turned out to be 54 ± 3 µM.
For `O=c1c(O)c(-c2ccc(O)cc2O)oc2cc(O)cc(O)c12` [Compound D9, Morin], the IC50 in test [1] came to 32 ± 2 µM.
Regarding `O=c1c(Cl)c(-c2ccc(O)c(O)c2)oc2cc(O)cc(O)c12` [Compound D10], the inhibition constant (Ki) on yeast α-glucosidase (setting [4]) is 51 ± 6 µM. In addition, the Type of inhibition entry on yeast α-glucosidase is recorded as “Non-competitive”. The IC50 in test [1] turned out to be 21 ± 2 µM.
With `COc1ccc(-c2oc3cc(OC)ccc3c(=O)c2O)cc1` [Compound C9], the inhibition at 200 µM in test [1] (setting [2]) was under 20%.
With `COc1cccc(-c2oc3cc(OC)ccc3c(=O)c2O)c1` [Compound C8], the inhibition at 100 µM in test [1] (setting [2]) was determined as 22 ± 2%.
As to `O=c1cc(-c2ccc(O)c(O)c2)oc2c(Cl)c(O)c(Cl)c(O)c12` [Compound D14], in test [1], the IC50 was 34 ± 3 µM.
For `COc1ccc(-c2cc(=O)c3c(O)cc(O)cc3o2)cc1` [Compound D16, Acacetin], in test [1] (setting [3]), the concentration for half-maximal inhibition (IC50) was about 200 µM.
In the case of `O=c1c(O)c(-c2ccc(O)c(O)c2)oc2c(O)c(O)ccc12` [Compound C7], at yeast α-glucosidase, the Ki is 6.5 ± 0.2 µM and the Type of inhibition entry is given as “Competitive”. The half-maximal inhibitory concentration (IC50) in test [1] (setting [3]) came out at 7.6 ± 0.4 µM.
In the case of `O=c1c(O)c(-c2ccccc2)oc2cc(O)cc(O)c12` [Compound D2, Galangin], the inhibition at 200 µM in test [1] (setting [2]) was determined as 21 ± 3%.
Take `O=c1c(O)c(-c2cccc(O)c2)oc2cc(O)ccc12` [Compound C4]: in test [1] (setting [3]), the IC50 came out at 42 ± 4 µM.
As for `O=c1cc(-c2ccc(O)cc2)oc2ccccc12` [Compound A3], the “Inhibitory activity” value in test [1] is listed as “low or no inhibitory activity”. In addition, the inhibition at 200 µM in test [1] (setting [2]) is under 20%.
For the compound `COc1ccc(-c2cc(=O)c3c(O)cc(O)cc3o2)cc1OC` [Compound D17], in test [1] (setting [2]), the inhibition at 200 µM is under 20%.
For the compound `O=c1cc(-c2cccc(O)c2)oc2ccccc12` [Compound A2], in test [1], the “Inhibitory activity” value is “low or no inhibitory activity”. Further, the inhibition at 200 µM in test [1] (setting [2]) is under 20%.
As to `O=c1cc(-c2cccc(O)c2)oc2cc(O)ccc12` [Compound C2], the IC50 in test [1] (setting [3]) is 53 ± 4 µM.
For `O=c1cc(-c2cccc(O)c2)oc2cc(O)cc(O)c12` [Compound D4], in test [1], the IC50 stood at 89 ± 3 µM.
Consider `O=c1c(Cl)c(-c2ccc(O)c(O)c2)oc2c(Cl)c(O)cc(O)c12` [Compound D13], for which the IC50 in test [1] is 43 ± 3 µM.
On to `O=c1c(O)c(-c2ccc(O)c(O)c2)oc2cc(O)cc(O)c12` [Compound D8, Quercetin], for which the Type of inhibition result with α-glucosidase is recorded as “mixed type inhibitor”; on yeast α-glucosidase, “Competitive”.
For `O=c1cc(-c2ccc(O)c(O)c2)oc2ccccc12` [Compound A4], the “Inhibitory activity” value in test [1] is “low or no inhibitory activity”. The inhibition at 200 µM in test [1] (setting [2]) was 32 ± 4%.
`O=C1C[C@@H](c2ccc(O)cc2)Oc2cc(O)cc(O)c21` [Compound E1, Naringenin]: the inhibition at 200 µM in test [1] (setting [2]) turned out to be 45 ± 3%.
For the compound `O=c1cc(-c2ccc(O)cc2)oc2cc(O)ccc12` [Compound C3], in test [1] (setting [3]), the IC50 was about 200 µM.
Turning to `COc1ccc2c(=O)c(O)c(-c3ccc(O)c(O)c3)oc2c1OC` [Compound C10], the IC50 in test [1] was found to be 86 ± 6 µM.
As for `C[C@@H]1O[C@@H](OC[C@H]2O[C@@H](Oc3c(-c4ccc(O)c(O)c4)oc4cc(O)cc(O)c4c3=O)[C@H](O)[C@@H](O)[C@@H]2O)[C@H](O)[C@H](O)[C@H]1O` [Compound D18, Rutin], the “Inhibitory activity” value in test [1] is reported as “low activity”. Moreover, the inhibition at 200 µM in test [1] (setting [2]) is under 20%.
With `O=c1cc(-c2ccc(O)c(O)c2)oc2cc(O)ccc12` [Compound C6], the IC50 in test [1] (setting [3]) stood at 95 ± 7 µM.
Turning to `O=c1cc(-c2ccccc2)oc2ccccc12` [Compound A1, Flavone], the “Inhibitory activity” value in test [1] was “not able to inhibit α-glucosidase”. The inhibition at 200 µM in test [1] (setting [2]) was under 20%.
On to `O=C1C[C@@H](c2ccc(O)c(O)c2)Oc2cc(O)cc(O)c21` [Compound E2, Eriodictyol], for which the inhibition at 200 µM in test [1] (setting [2]) is 35 ± 4%.
Take `O=c1cc(-c2ccccc2)oc2cc(O)ccc12` [Compound C1]: the “Activity against α-glucosidase catalytic activity” value in the test with α-glucosidase is recorded as “no activity”. Besides, in test [1], the IC50 was over 200 µM. Besides, in test [1] (setting [2]), the inhibition at 200 µM was under 20%.
Turning to `O=c1cc(-c2cccc(O)c2)oc2cccc(O)c12` [Compound B2], the inhibition at 200 µM in test [1] (setting [2]) came out at 31 ± 4%.
As to `O=c1cc(-c2ccc(O)c(O)c2)oc2cc(O)cc(O)c12` [Compound D7, Luteolin], the IC50 in test [1] (setting [3]) was determined as 46 ± 6 µM.
As to `O=c1cc(-c2ccc(O)cc2)oc2cccc(O)c12` [Compound B3], at yeast α-glucosidase, the Ki was determined as 127 ± 9 µM and the Type of inhibition result is “Mixed”. The IC50 in test [1] (setting [3]) came out at 66 ± 2 µM.
Turning to `COc1ccc(-c2oc3ccccc3c(=O)c2O)cc1OC` [Compound A6], the IC50 in test [1] (setting [3]) is over 100 µM. Besides, the inhibition at 100 µM in test [1] (setting [2]) is under 20%.
